Laboratory results taken from patent publication US5466717A, “Halogenated 4'-methoxyacetophenones as microbicides and preservatives” (Buckman Laboratories Int'l, Inc., priority 1993, dated 1995).

Experiments:
[1] = test system: Aspergillus niger; assay: Inhibition of Aspergillus niger, modified pulp substrate method (Table 3); assay type: cell-based; set-up: key: 4: excellent; 3: good; 2: poor; 1: very poor, scant, questionable; 0: no growth; conditions: pH 4.5 to 5.0
Description: The growth inhibiting activity of compounds 1 and 2 on the fungus Aspergillus niger was evaluated. A variation of the pulp substrate method of Example 2 was used.
When fungi are used as test organisms, the pulp-substrate test method is modified to permit the growth of fungi. The pulp substrate comprises an aqueous slurry of spruce groundwood containing 1 percent by weight (dry basis) of wood fibers enriched by the addition of 0.26 percent of sodium nitrate and 0.64 percent of maltose (technical grade). Forty-gram portions of the enriched groundwood pulp slurry were added to 250 mL Erlenmeyer flasks fitted with loose metal caps and were then sterilized. Each of the following substances was then added to the flasks in the order listed:
(1) Sterile, demineralized water as required in each individual case was added to bring the total weight of the contents of each flask to 50 grams, after allowing for all subsequent additions specified hereinafter (including inoculation with the aqueous suspension of spores and/or mycelial fragments of the test fungus).
(2) One milliliter of a 2.0 percent by weight sterile solution of rosin size. Rosin size is the pasty sodium soap of rosin containing approximately 20 to 30 percent free rosin and 30 percent water. A suitable rosin size is that known as rosin size 70D made by Papermaker's Chemical Department, Hercules, Inc., Kalamazoo, Mich.
(3) A solution of the toxicant or control agent to be evaluated in each test, to give the concentration desired in parts per million by weight.
(4) A sterile solution of buffer salts to adjust the substrate to a pH of 4.5 to 5.0, prepared from 0.2M solutions of potassium acid phthalate and sodium hydroxide. The buffer mixtures were prepared according to the procedures set forth in U.S. Pat. No. 2,881,070.
(5) Inoculum consisting of 1 milliliter of an aqueous suspension of spores and/or mycelial fragments of the test organism, Aspergillus niger.
After the inoculant suspensions of the test fungi were added, the flasks were incubated at a temperature of 30°±1° C. for a period adequate for growth to occur in the controls (portions of inoculated pulp substrate which contained no toxicant). The customary periods of incubation were 7 and 14 days. Growth was recorded after each period on the basis of the following key: […]

[2] = test system: Pseudomonas aeruginosa, Enterobacter serogenes and Bacillus subtilus; assay: Preservation of acrylic latex paint, 9 week multiple challenge test (Table 1); assay type: cell-based; set-up: key: 0: no growth was observed; +: less than 10 colonies were observed; ++: 10 or more colonies were observed
Description: The preservative effectiveness of compounds 1 and 2 was determined in a freshly prepared water-based paint formulated with titanium dioxide and calcium carbonate as pigments, an acrylic resin emulsion, dispersants, and hydroxyethyl cellulose as a thickener. The pH of this paint was approximately 9.0. […] One hundred gram samples of the test paints were challenged initially and at the end of the third and sixth weeks in a three-challenge, nine-week test with 1.0 milliliter of […] containing Pseudomonas aeruginosa, Enterobacter serogenes and Bacillus subtilus at a level of approximately 1.5×10^6 organisms per milliliter. After vigorous shaking, the inoculated paint was incubated at 28° C. Growth in system was monitored by streaking a sample of each test paint onto a nutrient agar on plates at intervals of 1 day, 2 days, 3 days, 7 days, and 21 days after each challenge. The streaked plates were incubated at 37° C. and examined for bacterial growth after 24 hours (challenge 1). A second sample of the same inoculated paint was rechallenged at the end of 21 days (challenge 2) and again at the end of 42 days (challenge 3).

[3] = test system: P. aeruginosa; assay: Basal salts method, percentage kill of P. aeruginosa (Table 5); assay type: cell-based; conditions: Pseudomonas aeruginosa
Description: (§1) Compounds 1 and 2 were tested against bacterial growth by the basal salts method described in U.S. Pat. No. 2,881,070, Column 5, line 12--Column 6, line 53. The disclosure of U.S. Patent No. 2,881,070 is specifically incorporated here by reference.

[4] = test system: Desulfovibrio desulfuricans; assay: Effectiveness against sulfate reducing bacterium, Method API Rp 38 (Table 7); assay type: cell-based; set-up: key: +: growth; 0: no growth; conditions: pH 7.0, duplicates
Description: The effectiveness of compounds 1 and 2 against Desulfovibrio desulfuricans,a sulfate reducing bacterium, was determined using the method recommended by the American Petroleum Institute (Method API Rp 38). The composition of the sulfate-reducer medium for the bacteriostatic test is as follows: The ingredients are dissolved by gentle heating with constant stirring. […] If necessary, the medium is then filtered through Whatman No. 1 or No. 2 filter paper. Following filtration, the medium is autoclaved at 15 lb steam pressure for […]. After autoclaving, the medium is allowed to cool slightly and the iron salt, Fe(SO4)2 (NH4)2.6H2 O, is added. The pH is then checked and readjusted if necessary. The medium is now cooled to room temperature as rapidly as possible, without agitation. After cooling, the medium is inoculated from the third successive 24-hour transfer of an actively growing culture (a liquid culture which turns black within 24 hours after inoculation) of sulfate-reducing bacteria. Ten milliliters of inoculum are added to each liter of medium. From stock solutions of the chemical to be screened, sufficient amounts of the compounds are added to 1- or 2-oz clear bottles so that the desired concentrations of chemicals are present when the containers are filled. The amount of stock solution added cannot exceed 10 percent of the volume of the test bottle. After addition of the chemical, the bottles are completely filled with the inoculated medium. The bottles are then capped with plastic caps containing cork and aluminum foil or Teflon liners and are incubated at 30°±2° C. All work is done in duplicate with at least three controls for each series. The controls consist of bottles filled with inoculated medium only. Growth of sulfate-reducing bacteria in the bottles is indicated by an intense blackening of the medium, whereas containers having sufficient chemical to inhibit growth will remain clear. Bottles with no sulfate-reducing bacteria growth are observed for a period of 28 days after the controls have blackened. The results were recorded using a +/0 scale where "+" indicates growth and "0" indicates no growth.

[5] = test system: E. aerogenes; assay: Basal salts method, percentage kill of E. aerogenes (Table 5); assay type: cell-based, Enterobacter aerogenes; conditions: Klebsiella aerogenes
Description: as §1

## COc1ccc(C(=O)CBr)cc1Br [Compound 1, 2,3'-dibromo-4'-methoxyacetophenone]
[1]; 5 ppm
  Inhibition of Aspergillus niger, growth after 14 days: 4
[1]; 10 ppm
  Inhibition of Aspergillus niger, growth after 14 days: 2
[1]; 25 ppm
  Inhibition of Aspergillus niger, growth after 14 days: 0
[1]; 100 ppm
  Inhibition of Aspergillus niger, growth after 14 days: 0
[2]; 100 ppm w/w, challenge 1
  Observation of growth 21 days after challenge: ++ (10 or more colonies were observed)
[2]; 100 ppm w/w, challenge 2
  Observation of growth 21 days after challenge: ++ (10 or more colonies were observed)
[2]; 100 ppm w/w, challenge 3
  Observation of growth 21 days after challenge: ++ (10 or more colonies were observed)
[2]; 250 ppm w/w, challenge 1
  Observation of growth 21 days after challenge: 0
[2]; 250 ppm w/w, challenge 2
  Observation of growth 21 days after challenge: 0
[2]; 250 ppm w/w, challenge 3
  Observation of growth 21 days after challenge: 0
[2]; 500 ppm w/w, challenge 1
  Observation of growth 21 days after challenge: 0
[2]; 500 ppm w/w, challenge 2
  Observation of growth 21 days after challenge: 0
[2]; 500 ppm w/w, challenge 3
  Observation of growth 21 days after challenge: 0
[2]; 2500 ppm w/w, challenge 1
  Observation of growth 21 days after challenge: 0
[2]; 2500 ppm w/w, challenge 2
  Observation of growth 21 days after challenge: 0
[2]; 2500 ppm w/w, challenge 3
  Observation of growth 21 days after challenge: 0
[2]; 5000 ppm w/w, challenge 1
  Observation of growth 21 days after challenge: 0
[2]; 5000 ppm w/w, challenge 2
  Observation of growth 21 days after challenge: 0
[2]; 5000 ppm w/w, challenge 3
  Observation of growth 21 days after challenge: 0
[3]; pH 6.0
  killing at 10 ppm: 100%
  killing at 20 ppm: 100%
  killing at 30 ppm: 100%
[3]; pH 8.0
  killing at 10 ppm: 98%
  killing at 20 ppm: 99%
  killing at 30 ppm: 99.6%
[4]; 1 ppm
  growth of Desulfovibrio desulfuricans: +
[4]; 2 ppm
  growth of Desulfovibrio desulfuricans: +
[4]; 8 ppm
  growth of Desulfovibrio desulfuricans: +
[5]; pH 8.0
  killing at 2 ppm: 99%
  killing at 4 ppm: 99.9%
  killing at 8 ppm: 100%
  killing at 10 ppm: 100%
  killing at 20 ppm: 100%
  killing at 30 ppm: 100%
[5]; pH 6.0
  killing at 10 ppm: 100%
  killing at 20 ppm: 100%
  killing at 30 ppm: 100%

## COc1ccc(C(=O)C(Br)Br)cc1Br [Compound 2, 2,2,3'-tribromo-4'-methoxyacetophenone]
[1]; 5 ppm
  Inhibition of Aspergillus niger, growth after 14 days: 4
[1]; 10 ppm
  Inhibition of Aspergillus niger, growth after 14 days: 2
[1]; 25 ppm
  Inhibition of Aspergillus niger, growth after 14 days: 0
[1]; 100 ppm
  Inhibition of Aspergillus niger, growth after 14 days: 0
[2]; 100 ppm w/w, challenge 1
  Observation of growth 21 days after challenge: ++ (10 or more colonies were observed)
[2]; 100 ppm w/w, challenge 2
  Observation of growth 21 days after challenge: ++ (10 or more colonies were observed)
[2]; 100 ppm w/w, challenge 3
  Observation of growth 21 days after challenge: ++ (10 or more colonies were observed)
[2]; 250 ppm w/w, challenge 1
  Observation of growth 21 days after challenge: 0
[2]; 250 ppm w/w, challenge 2
  Observation of growth 21 days after challenge: 0
[2]; 250 ppm w/w, challenge 3
  Observation of growth 21 days after challenge: 0
[2]; 500 ppm w/w, challenge 1
  Observation of growth 21 days after challenge: 0
[2]; 500 ppm w/w, challenge 2
  Observation of growth 21 days after challenge: 0
[2]; 500 ppm w/w, challenge 3
  Observation of growth 21 days after challenge: 0
[2]; 2500 ppm w/w, challenge 1
  Observation of growth 21 days after challenge: 0
[2]; 2500 ppm w/w, challenge 2
  Observation of growth 21 days after challenge: 0
[2]; 2500 ppm w/w, challenge 3
  Observation of growth 21 days after challenge: 0
[2]; 5000 ppm w/w, challenge 1
  Observation of growth 21 days after challenge: 0
[2]; 5000 ppm w/w, challenge 2
  Observation of growth 21 days after challenge: 0
[2]; 5000 ppm w/w, challenge 3
  Observation of growth 21 days after challenge: 0
[3]; pH 6.0
  killing at 10 ppm: 99.8%
  killing at 20 ppm: 100%
[3]; pH 8.0
  killing at 10 ppm: 94%
  killing at 20 ppm: 100%
  killing at 30 ppm: 100%
[4]; 1 ppm
  growth of Desulfovibrio desulfuricans: +
[4]; 2 ppm
  growth of Desulfovibrio desulfuricans: +
[4]; 8 ppm
  growth of Desulfovibrio desulfuricans: +
[5]; pH 8.0
  killing at 2 ppm: 57%
  killing at 4 ppm: 100%
  killing at 8 ppm: 100%
  killing at 10 ppm: 100%
  killing at 20 ppm: 100%
  killing at 30 ppm: 100%
[5]; pH 6.0
  killing at 10 ppm: 100%
  killing at 20 ppm: 100%
  killing at 30 ppm: 100%
